Peptide text beside a SMILES is read from it.
What was measured:
[1] = C57BL/6J mice, 37C, up to 60 minutes
H-2 K^b = molecular target: T1, H-2 K^b (Mus musculus, UniProt P01901); experiment: RMA-S K^b stabilization assay
T1 sequence (P01901 22-369): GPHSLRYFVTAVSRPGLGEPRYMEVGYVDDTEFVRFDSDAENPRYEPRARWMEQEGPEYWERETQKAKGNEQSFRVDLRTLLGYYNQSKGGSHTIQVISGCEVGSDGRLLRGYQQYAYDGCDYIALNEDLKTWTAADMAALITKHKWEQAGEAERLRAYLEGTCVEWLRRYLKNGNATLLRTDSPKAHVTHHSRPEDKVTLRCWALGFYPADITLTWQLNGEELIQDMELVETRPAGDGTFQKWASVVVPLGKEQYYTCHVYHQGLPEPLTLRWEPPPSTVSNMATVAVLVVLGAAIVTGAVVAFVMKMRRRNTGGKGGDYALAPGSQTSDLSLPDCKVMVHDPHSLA
T1 sequence (P01887 21-119 partner): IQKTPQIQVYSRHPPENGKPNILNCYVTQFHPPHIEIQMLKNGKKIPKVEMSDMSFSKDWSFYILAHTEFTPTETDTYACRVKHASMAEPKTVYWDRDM
Description: Data was analyzed after normalization and modeling using ECAnything (Prism 8). […] (A) RMA-S K^b stabilization assay. Variant peptides were titrated, added to RMA-S cells, and the relative H-2 K^b surface expression (MFI) was determined by flow cytometry. […] Each assay was repeated 4 times.
Titrated (100uM to 1pM) were added to RMA-S cells (5x10^4/well) and cultured overnight at 27C in 5% CO2. The cells were the shifted to 37C for 1–2 hours, and then their surface expression of K^b was analyzed by flow cytometry.
Normalized and fitted data from Fig 6A.using the ECanything nonlinear regression model (Prism 8) to fit the curves. By setting F = 50, the IC50 was determined for each data set. The points are the experimental data, the solid lines are the fitted line, and the dashed lines are the 95% confidence intervals. This experiment was repeated four times with similar results.

| Compound | IC50 (H-2 K^b) [µM] | other results |
| --- | --- | --- |
| MSQIMYNYPTMLGHAGDMAGYAGTLQSLGAEIAV |  | cleaved bond [1]: Y21-A22 |
| CC[C@H](C)[C@H](N)C(=O)N[C@@H](CCSC)C(=O)N[C@@H](Cc1ccc(O)cc1)C(=O)N[C@@H](CC(N)=O)C(=O)N[C@@H](Cc1ccc(O)cc1)C(=O)N1CCC[C@H]1C(=O)N[C@@H](C)C(=O)N[C@H](C(=O)O)[C@@H](C)CC [M11I] (H-IMYNYPAI-OH) | 29.1 |  |
| CC[C@H](C)[C@H](N)C(=O)N[C@@H](CCSC)C(=O)N[C@@H](Cc1ccc(O)cc1)C(=O)N[C@@H](CC(N)=O)C(=O)N[C@@H](Cc1ccc(O)cc1)C(=O)N1CCC[C@H]1C(=O)N[C@H](C(=O)N[C@@H](CCSC)C(=O)O)C(C)C [A10V] (H-IMYNYPVM-OH) | 21.3 |  |
| CC[C@H](C)[C@H](NC(=O)[C@@H](NC(=O)[C@@H](N)CO)[C@@H](C)CC)C(=O)N[C@@H](CC(N)=O)C(=O)N[C@@H](Cc1ccccc1)C(=O)N[C@@H](CCC(=O)O)C(=O)N[C@@H](CCCCN)C(=O)N[C@@H](CC(C)C)C(=O)O [reference compound] | 7.32 |  |
| CC[C@H](C)[C@H](N)C(=O)N[C@@H](CCSC)C(=O)N[C@@H](Cc1ccc(O)cc1)C(=O)N[C@@H](CC(N)=O)C(=O)N[C@@H](Cc1ccc(O)cc1)C(=O)N1CCC[C@H]1C(=O)N[C@H](C(=O)N[C@@H](CCSC)C(=O)O)[C@@H](C)O [A10T] (H-IMYNYPTM-OH) | 28.1 |  |
| IMANAPAM |  | Stabilization of K^b (in words) (H-2 K^b; RMA-S cells, surface K^b by flow cytometry, negative control peptide): failed to stabilize K^b |
| CC[C@H](C)[C@H](N)C(=O)N[C@@H](CCSC)C(=O)N[C@@H](Cc1ccc(O)cc1)C(=O)N[C@@H](CC(N)=O)C(=O)N[C@@H](Cc1ccc(O)cc1)C(=O)N[C@@H](CO)C(=O)N[C@@H](C)C(=O)N[C@@H](CCSC)C(=O)O [P9S] (H-IMYNYSAM-OH) | 59.3 |  |
